In patent publication US6420419B1, “L-ascorbic acid 2-phosphate zinc salt and process for manufacturing the same” (Showa Denko Kabushiki Kaisha, priority 1997, dated 2002):

Experiments:
Solubility in water = type: physicochemical
[1] = Stability in buffer solution, storage at 50° C. for 476 hours, HPLC; type: physicochemical; conditions: for Stability (100% = concentration before storage) pH: 8: about 0.1% in 50 mM Tris-HCl, pH: 8, stored at 50° C. for 476 hours; for Stability (100% = concentration before storage) pH: 5: about 0.1% in 50 mM acetic acid-NaOH, pH: 5, stored at 50° C. for 476 hours
Protocol: In the Examples and Test Examples, the analysis of an L-ascorbic acid 2-phosphate salt or an ion thereof was performed using an Ap-containing solution having a known concentration (prepared from L-ascorbic acid 2-phosphate magnesium salt) as a standard by an HPLC method using a Shodex IEC DEAE-825 resin (ammonium acetate 10 mM→1M gradient, detected spectrophotometrically at 265 nm). The elemental analysis was performed by an ICP emission method, flame photometry and an ion chromatography method. Unless otherwise indicated, the reagents used herein were commercially available reagents.
The stability of L-ascorbic acid 2-phosphate zinc salt was compared to that of L-ascorbic acid 2-phosphate magnesium salt. Each salt was dissolved in a buffer solution (50 mM acetic acid-NaOH, pH: 5, or 50 mM Tris-HCl, pH: 8). to a concentration of about 0.1% and stored at 50° C. for 476 hours. The concentrations of the L-ascorbic acid 2-phosphate before and after storage were analyzed by the HPLC method.

E. coli (K-12 strain) = assay: Antimicrobial effect, turbidity in NUTRIENT BROTH; type: cell-based; set-up: key: “+” indicates that turbidity increased after incubation; “−” indicates no increase in turbidity; conditions: 0.1% salt, pH 6.8, about 10^7 cells/ml, 37° C. for 24 hours
Protocol: (§1) To NUTRIENT BROTH (produced by DIFCO), 0.1% of an L-ascorbic acid 2-phosphate salt was added thereto, and the pH was adjusted to 6.8 using hydrochloric acid or sodium hydroxide. Using 5 ml of the medium thus prepared, test bacterium were inoculated in a concentration of about 10^7 cells/ml and incubated in a test tube at 37° C. for 24 hours. […] As a control, the same test was performed using a medium not containing an L-ascorbic acid 2-phosphate salt.

B. subtilis (168 strain) = assay: Antimicrobial effect, turbidity in NUTRIENT BROTH; type: cell-based; set-up: key: “+” indicates that turbidity increased after incubation; “−” indicates no increase in turbidity; conditions: 0.1% salt, pH 6.8, about 10^7 cells/ml, 37° C. for 24 hours
Protocol: as §1

[2] = in water; background statement on conventionally known salts; cited from earlier work
[3] = listed as L-ascorbic acid 2-phosphate zinc salt (Example 1)
[4] = listed as L-ascorbic acid 2-phosphate zinc salt (Example 2)

Structure (SMILES) | Increase in turbidity after incubation, E. coli (K-12 strain) (E. coli (K-12 strain)) | Increase in turbidity after incubation, B. subtilis (168 strain) (B. subtilis (168 strain)) | Concentration of aqueous solution that can be formed [2] | also measured
O=C1O[C@H]([C@@H](O)CO)C(O)=C1OP(=O)([O-])[O-].[Zn+2] [L-ascorbic acid 2-phosphate zinc salt] |  |  |  | Concentration of aqueous solution easily formed (Solubility in water): ≥ 50 wt %
O=C1O[C@H]([C@@H](O)CO)C(O)=C1OP(=O)([O-])[O-].[Zn+2] [Example 1, L-ascorbic acid 2-phosphate zinc salt] | − | − |  | Stability (100% = concentration before storage) pH: 8 [1, 3]: 93%; Stability (100% = concentration before storage) pH: 5 [1, 3]: 91%
O=C1O[C@H]([C@@H](O)CO)C(O)=C1OP(=O)([O-])[O-].[Mg+2] [L-ascorbic acid 2-phosphate magnesium salt] | + | + | < 30% | Stability (100% = concentration before storage) pH: 8 [1]: 95%; Stability (100% = concentration before storage) pH: 5 [1]: 82%
O=C1O[C@H]([C@@H](O)CO)C(O)=C1OP(=O)([O-])[O-].[Zn+2] [Example 2, L-ascorbic acid 2-phosphate zinc salt] |  |  |  | Stability (100% = concentration before storage) pH: 8 [1, 4]: 95%; Stability (100% = concentration before storage) pH: 5 [1, 4]: 92%
O=C1O[C@H]([C@@H](O)CO)C(O)=C1OP(=O)([O-])[O-].[Na+].[Na+] [Sodium salt, Sodium L-ascorbic acid 2-phosphate] | + | + | about 30% | 
